The values that follow come from paper PMC8839210, “Identification of Inhibitory Activities of Dietary Flavonoids against URAT1, a Renal Urate Re-Absorber: In Vitro Screening and Fractional Approach Focused on Rooibos Leaves” (Nutrients, 2022).

The structures appear in SMILES notation.

The target in assay [1] is T1, URAT1 (Homo sapiens, UniProt Q96S37).
T1 construct: The complete human URAT1 cDNA in pEGFP-C1; expressed in transfected cells; host or cells: 293A cells (human embryonic kidney 293-derived), transient transfection with PEI-MAX
T1 sequence (Q96S37 1-553): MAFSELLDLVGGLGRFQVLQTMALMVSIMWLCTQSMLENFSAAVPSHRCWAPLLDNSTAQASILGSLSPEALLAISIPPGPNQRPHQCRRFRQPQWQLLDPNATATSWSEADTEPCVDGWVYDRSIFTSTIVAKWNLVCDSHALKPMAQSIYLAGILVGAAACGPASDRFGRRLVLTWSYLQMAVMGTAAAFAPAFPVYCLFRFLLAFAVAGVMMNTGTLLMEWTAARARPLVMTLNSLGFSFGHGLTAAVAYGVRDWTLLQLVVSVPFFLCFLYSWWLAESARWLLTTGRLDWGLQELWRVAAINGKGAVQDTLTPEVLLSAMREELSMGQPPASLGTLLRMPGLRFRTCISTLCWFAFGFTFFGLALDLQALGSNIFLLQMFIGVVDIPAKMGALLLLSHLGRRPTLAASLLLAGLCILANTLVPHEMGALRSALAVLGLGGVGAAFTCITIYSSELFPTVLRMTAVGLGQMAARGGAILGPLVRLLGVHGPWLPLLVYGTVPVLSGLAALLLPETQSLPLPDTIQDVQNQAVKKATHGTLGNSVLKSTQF
Kind of assay: Urate transport assay using URAT1-expressing 293A cells. To be noted: for remaining activity at 100 µM: 293A, authentic chemical 100 μM, mean ± S.D., n = 3, read-out: URAT1-mediated urate transport activity, % of the control; for remaining activity at 100 µM / IC50: 20 s; for IC50: [14C]-urate 5 μM, 37 °C, URAT1-expressing 293A cells, read-out: IC50 against URAT1-mediated urate transport. Format: cell-based. As to the method: After 24 h, each vector was transiently transfected into the cells (1 μg of plasmid/5 μL of PEI-MAX/well). At 24 h after transfection, the culture medium was replaced with fresh one.
Briefly, 48 h after plasmid transfection, cells were washed twice with Buffer T2 and then pre-incubated in Buffer T2 for 15 min at 37 °C. Then, the buffer was exchanged with pre-warmed fresh Buffer T2 containing radiolabeled urate ([8-^14C]-uric acid; final concentration, 5 μM) with or without the test compound at the indicated concentrations (0, 0.3, 1, 3, 10, 30, 100, 300, or 500 μM); the cells were further incubated for 20 s at 37 °C; as vehicle control, 1% DMSO was used in this study. Subsequently, the cells were washed five times with ice-cold Buffer T2; then, the cells were lysed with 0.2 M NaOH solution (500 μL/well) on ice. The resulting lysates were neutralized with 1 M HCl solution (100 μL/well). […] Using a Pierce BCA Protein Assay Kit (Thermo Fisher Scientific, Kanagawa, Japan), protein concentration was determined. Urate transport activity was calculated as the incorporated clearance (μL/mg protein/min): (incorporated level of urate [DPM/mg protein/min]/urate level in the incubation mixture [DPM/μL]). URAT1-dependent urate transport activity was calculated by subtracting the urate transport activity of mock (control) cells from that of URAT1-expressing cells.
Urate uptake was examined in the presence of several concentrations of each test compound to determine their IC50 values. Then, URAT1-mediated transport activities were expressed as a percentage of the control (100%).

On the set-up of assay [2]: method as in PMID 26785820. As to conditions: healthy males, four weeks, cited from earlier work.
The subject of assay [3] is xanthine oxidoreductase (XOD). To be noted: cited from earlier work.
For assay [4], the target named is T1, URAT1. To be noted: cited from earlier work.

With `O=C(/C=C/c1ccc(O)cc1)c1c(O)cc(O)cc1O` [naringenin chalcone, Naringenin chalcone], the remaining activity at 100 µM at URAT1 [1] is < 50%.
As for `O=c1c(O)c(-c2ccc(O)c(O)c2)oc2cc(O)ccc12` [Fisetin], at URAT1 [1], the remaining activity at 100 µM was < 50% and the IC50 (commonly the concentration needed to halve the response being measured) turned out to be 7.5 µM.
Turning to `O=c1c(O)c(-c2ccc(O)c(O)c2)oc2cc(O)cc(O)c12` [Quercetin], the “Effect on URAT1-mediated urate transport (in words)” value on URAT1 [1] (300 μM, experimentally maximum concentration) is given as “inhibited URAT1”. Moreover, at URAT1 [1], the IC50 was 12.6 µM. Besides, the “Plasma uric acid concentration, mean difference” value in assay [2] (500 mg quercetin daily as single tablet, mean plasma uric acid 5.5 mg/dL) is -0.45 mg/dL. For the same molecule, the “Urinary uric acid output over 24 h (24 h-UUA), before vs after treatment” value in assay [2] (500 mg quercetin daily) is “no significant difference”. For the same molecule, the “XOD inhibition (in words)” value in assay [3] is “inhibitory activity”.
As to `O=c1c(O)c(-c2cc(O)c(O)c(O)c2)oc2cc(O)cc(O)c12` [Myricetin], on URAT1 [1], the remaining activity at 100 µM is < 50% and the IC50 is 18.1 µM.
For `O=c1c(-c2ccc(O)cc2)coc2cc(O)cc(O)c12` [Genistein], in that order: < 50% and 101 µM.
On to `O=c1c(O)c(-c2ccc(O)cc2O)oc2cc(O)cc(O)c12` [morin, Morin], for which, at URAT1 [1], the remaining activity at 100 µM was < 50%. Also, at URAT1 [4] (previous report), the “URAT1 inhibition (in words)” value is “URAT1 inhibitor”.
`O=c1c(O)c(-c2ccc(O)c(O)c2)oc2c(O)c(O)cc(O)c12` [Gossypetin]: on URAT1 [1], the remaining activity at 100 µM was < 50% and the IC50 was determined as 31.3 µM.
For `O=c1cc(-c2ccc(O)c(O)c2)oc2cc(O)cc(O)c12` [Luteolin] the same measures were < 50% and 25.7 µM.
Regarding `O=C(CCc1ccc(O)c(O)c1)c1c(O)cc(O)c([C@@H]2O[C@H](CO)[C@@H](O)[C@H](O)[C@H]2O)c1O` [aspalathin, reference compound], the “XOD inhibition (in words)” value in assay [3] is reported as “inhibits XOD”.
On to `O=c1c(O)c(-c2ccc(O)c(O)c2)oc2cc(O)c(O)c(O)c12` [Quercetagetin], for which, at URAT1 [1], the remaining activity at 100 µM is < 50% and the half-inhibitory concentration (IC50) was found to be 18.4 µM.
As for `O=C1C[C@@H](c2ccc(O)cc2)Oc2cc(O)cc(O)c21` [naringenin, reference compound], the “URAT1-mediated urate transport activity, % of the control” value on URAT1 [4] (100 μM, previous study of the authors) is given as 17.9 ± 7.7%.
